Test results as given in patent US20080132477A1, “Macrocyclic Compounds Useful as Bace Inhibitors” (priority 2005, published 2008).
Like-named read-outs stand apart in the source and are kept apart here. Blank lines part the entries; values can stand above or below the compound they belong to.

Key:
[1] = rcm bond, DCM, 40.0 °C
Human BACE = target: T1, Human BACE (Homo sapiens, UniProt P56817); experiment: Test 1: Inhibition of Human BACE; type: biochemical; conditions: test not given; follows Tests 1-4, assumed BACE
T1 construct: Recombinant BACE (extracellular domain, expressed in baculovirus and purified using standard methods); made in house
T1 sequence (P56817 46-457 limits assumed): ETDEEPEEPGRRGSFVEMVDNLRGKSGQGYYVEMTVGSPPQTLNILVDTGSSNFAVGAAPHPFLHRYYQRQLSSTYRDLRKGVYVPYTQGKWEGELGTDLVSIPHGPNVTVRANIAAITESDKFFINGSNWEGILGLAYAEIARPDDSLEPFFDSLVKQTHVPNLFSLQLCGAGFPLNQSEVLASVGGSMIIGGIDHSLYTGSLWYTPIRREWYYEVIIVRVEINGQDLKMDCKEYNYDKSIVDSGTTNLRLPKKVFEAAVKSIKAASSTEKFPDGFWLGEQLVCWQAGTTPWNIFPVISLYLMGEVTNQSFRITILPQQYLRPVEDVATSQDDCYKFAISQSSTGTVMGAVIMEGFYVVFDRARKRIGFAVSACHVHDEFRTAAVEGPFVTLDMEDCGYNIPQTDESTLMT
Experimental: Test 1: Inhibition of Human BACE
Recombinant BACE (extracellular domain, expressed in baculovirus and purified using standard methods) at 6 nM concentration is incubated with the test compound at various concentrations for 1 hour at room temperature in 100 mM acetate buffer, pH 4.5, containing 0.1% CHAPS. Synthetic peptide substrate Mca-Ser-Glu-Val-Asn-Leu-Asp-Ala-Glu-Phe-Lys(DNP) is added to a final concentration of 3 μM and the increase in fluorescence is recorded at excitation of 325 nm and emission at 400 nm in a microplate spectro-fluorimeter for 20 minutes in 1-minute intervals. IC50 values are calculated from percentage of inhibition of BACE-activity as a function of the test compound concentration.

SMILES: COc1ccc2cc1CC=CCN(C(C)=O)c1cc(cc(Cl)n1)C(=O)N[C@H]([C@H]1CN(Cc3cccc(C(C)C)c3)C(=O)O1)C2
ring closure, yield of all isomers ([1]; from C=CCc1cc(C[C@H](NC(=O)c2cc(Cl)nc(N(CC=C)C(C)=O)c2)[C@H]2CN(Cc3cccc(C(C)C)c3)C(=O)O2)ccc1OC, Grubbs II (tricyclohexylphosphine[1,3-bis(2,4,6-trimethylphenyl)-4,5-dihydroimidazol-2-ylidene][benzylidene]ruthenium(IV) dichloride), 3.45 mM, 6.0 h): 77.6%

IC50 (Human BACE): 0.04 µM
SMILES: Cc1cc2cc(n1)NCCCCc1cccc(c1)C[C@@H]([C@H](O)CNCc1cccc(C(C)C)c1)NC2=O [Example 11, (S)-4-[(R)-1-Hydroxy-2-(3-isopropyl-benzylamino)-ethyl]-18-methyl-3,15,17-triaza-tricyclo[14.3.1.1*6,10*]henicosa-1(19),6,8,10(21),16(20),17-hexaen-2-one]

SMILES: CN(C)C(=O)c1cc2cc(c1)C(=O)N[C@H]([C@H](O)CCl)Cc1cccc(c1)OCC=CCO2
ring closure, yield of all isomers ([1]; from C=CCOc1cccc(C[C@H](NC(=O)c2cc(OCC=C)cc(C(=O)N(C)C)c2)[C@H](O)CCl)c1, Grubbs II, 18.9 mM, 1.5 h): 70%
